What is called IC50 is the concentration that gives 50% inhibition.

SMILES strings stand for the structures. Like-named read-outs stand apart in the source and are kept apart here.

The values that follow come from patent US20030055244A1, “Pyridyl-containing spirocyclic compounds as inhibitors of fibrinogen-dependent platelet aggregation” (priority 1999, published 2003).

Assay [1] addresses T1, GPIIb-IIIa (Homo sapiens, UniProt P05106+P08514).
T1 construct: Purified platelet GPIIb-IIIa receptor was prepared as described by Fitzgerald; from tissue; host or cells: platelets
Put plainly: ELISA IIb-IIIa assay (fibrinogen binding to immobilized purified GPIIb-IIIa). As to conditions: inhibition of fibrinogen binding to purified GPIIb-IIIa. The procedure:
No. 1 - The ELISA IIb-IIIa Assay
PIIb-IIIa is coated onto microtiter plates. The coated support is then contacted with fibrinogen and with the test material (e.g., compounds of Formula I) and incubated for a sufficient time to permit maximal binding of fibrinogen to the immobilized GPIIb- Ila. Fibrinogen is typically provided at a concentration of about 5-50 nM and the test material can, if desired, be added at a series of dilution. Typical incubations are 2 to 4 hours at 25° C., the time and temperature being interdependent.
After incubation, the solution containing the fibrinogen and test material is removed and the level of binding of fibrinogen measured by quantitating bound fibrinogen to GPIIb-IIIa. Any suitable means of detection may be used, but it is convenient to employ labeled fibrinogen, for example using biotinylated labels. Such methods are well known in the art.
A. Description of Assays—Plate Assays
After purification, the receptors were stored in 0.1% Triton X-100 at 0.1-1.0 mg/ml.
The receptors were coated to the wells of 96-well flat-bottom ELISA plates (Linbro EIA-Plus microtiter plate, Flow Laboratories) after diluting 1:200 with a solution of 20 mM Tris-HCl, 150 mM NaCl, 1 mM CaCl2, pH 7.4, to reduce the Triton X-100 concentration to below its critical micellar concentration and adding an aliquot of 100 ul to each well. The wells were all allowed to incubate overnight at 4° C., and then aspirated to dryness. Additional sites were blocked by the addition of bovine serum albumin (BSA) at 35 mg/ml in the above buffer for two hours at 30° C. to prevent nonspecific binding. The wells were then washed once with binding buffer ([…] Tris-HCl, 100 mM NaCl 2 mM CaCl2, 1 mg/ml BSA).
The corresponding ligands (fibrinogen, von Willebrand Factor, or vitronectin) were conjugated to biotin using commercially available reagents and standard protocols. The labeled ligands were added to the receptor-coated wells at final concentration of 10 nM (100 ul/well) and incubated for 3 hours at 25° C. in the presence or absence of the test samples. After incubation, the wells are aspirated to dryness and bound ligand is quantitated.
Decreased color development is observed in wells incubated with test samples which inhibit binding of ligand to receptor.

The subject of assay [2] is human platelet-rich plasma. Kind of assay: Platelet aggregation assay (Aggregation-Human PRP/ADP). It is filed as cell-based. As for the experimental part:
Platelet-rich plasma was prepared from healthy human volunteers for use in determining inhibition of platelet aggregation by the compounds.
Platelet-rich plasma was prepared at room temperature by centrifugation of the citrated whole blood at 100 × g for twelve minutes. The platelet rich plasma contained approximately 200-400,000 platelets/μl.
Platelet aggregation was assayed in a 4-channel platelet aggregation profiler (PAP-4, Biodata, Hatboro, Pa.) according to the manufacturers directions. Inhibition of platelet aggregation was studied by adding varying amounts of adenosine diphosphate (ADP) to stirred human platelet-rich plasma. Specifically, the human platelet-rich plasma was incubated with the compound being tested for 1 minute at 37° C. prior to the addition of a variety of aggregating agents most often ADP 5 μM to 20 μM, but also 1 μg/ml collagen, 1 μM U46619 and 0.3 μM platelet activating factor.

For assay [3], the system named is human platelet-rich plasma. The assay is described as above. It is filed as cell-based. The source holds these as a separate data set.
Where [4] appears, read: read-out: PRP (ADP-Citrate) IC50.

T1 sequence (P08514 32-887 limits assumed): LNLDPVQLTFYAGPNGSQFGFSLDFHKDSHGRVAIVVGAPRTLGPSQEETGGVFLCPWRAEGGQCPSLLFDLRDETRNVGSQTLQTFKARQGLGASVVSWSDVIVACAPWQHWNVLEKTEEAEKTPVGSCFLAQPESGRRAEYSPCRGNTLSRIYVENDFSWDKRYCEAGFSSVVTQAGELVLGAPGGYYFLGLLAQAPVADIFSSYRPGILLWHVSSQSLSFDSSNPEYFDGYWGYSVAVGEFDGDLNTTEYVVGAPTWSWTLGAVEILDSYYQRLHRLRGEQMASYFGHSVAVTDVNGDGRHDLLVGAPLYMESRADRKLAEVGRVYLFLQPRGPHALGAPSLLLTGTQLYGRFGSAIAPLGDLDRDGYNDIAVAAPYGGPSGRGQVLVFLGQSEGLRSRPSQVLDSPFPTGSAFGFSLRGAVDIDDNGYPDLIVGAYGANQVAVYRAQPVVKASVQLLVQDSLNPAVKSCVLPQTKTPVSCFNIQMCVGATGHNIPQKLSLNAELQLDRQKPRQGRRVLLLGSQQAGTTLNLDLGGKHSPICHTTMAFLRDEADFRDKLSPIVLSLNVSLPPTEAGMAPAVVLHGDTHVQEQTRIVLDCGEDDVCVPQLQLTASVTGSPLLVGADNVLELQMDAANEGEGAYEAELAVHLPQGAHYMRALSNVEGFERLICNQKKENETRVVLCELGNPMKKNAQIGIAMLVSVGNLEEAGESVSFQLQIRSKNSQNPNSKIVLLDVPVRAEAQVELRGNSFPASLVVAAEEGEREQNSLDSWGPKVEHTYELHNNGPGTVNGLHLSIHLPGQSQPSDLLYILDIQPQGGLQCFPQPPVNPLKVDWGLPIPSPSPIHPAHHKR
T1 sequence (P08514 891-1039 limits assumed): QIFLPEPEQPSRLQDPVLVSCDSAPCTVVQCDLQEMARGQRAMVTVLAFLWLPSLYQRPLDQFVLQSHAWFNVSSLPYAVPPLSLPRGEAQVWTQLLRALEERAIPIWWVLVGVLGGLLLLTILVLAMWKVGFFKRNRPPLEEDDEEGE
T1 sequence (P05106 27-788): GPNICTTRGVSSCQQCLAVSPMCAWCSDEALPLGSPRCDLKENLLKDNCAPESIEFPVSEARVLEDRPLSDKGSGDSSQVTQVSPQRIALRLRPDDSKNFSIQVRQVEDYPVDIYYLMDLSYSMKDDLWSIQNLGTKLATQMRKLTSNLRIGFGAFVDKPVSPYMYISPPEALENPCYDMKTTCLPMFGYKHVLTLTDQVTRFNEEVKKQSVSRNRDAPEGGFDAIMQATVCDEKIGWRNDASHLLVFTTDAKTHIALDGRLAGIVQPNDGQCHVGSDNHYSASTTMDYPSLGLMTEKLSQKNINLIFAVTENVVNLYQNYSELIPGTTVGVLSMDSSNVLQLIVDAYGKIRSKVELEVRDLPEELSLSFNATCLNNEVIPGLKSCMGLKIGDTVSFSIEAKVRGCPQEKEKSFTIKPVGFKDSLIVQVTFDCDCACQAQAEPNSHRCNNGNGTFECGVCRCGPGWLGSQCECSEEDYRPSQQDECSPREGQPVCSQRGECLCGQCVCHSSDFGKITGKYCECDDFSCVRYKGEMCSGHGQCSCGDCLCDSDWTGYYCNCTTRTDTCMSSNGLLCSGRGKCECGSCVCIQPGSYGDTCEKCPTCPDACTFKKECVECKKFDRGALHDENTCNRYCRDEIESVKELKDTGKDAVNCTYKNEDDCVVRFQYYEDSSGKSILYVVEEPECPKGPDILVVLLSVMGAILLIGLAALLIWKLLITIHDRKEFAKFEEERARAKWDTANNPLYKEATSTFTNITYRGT

For the compound `CCCCS(=O)(=O)N[C@@H](CNC(=O)C1CCC2(CC1)CCN(c1ccncc1)CC2)C(=O)O` [Example 15], the results for the IC50 in assay [1], in assay [2] (read-out: PRP (ADP) IC50) and in assay [3] (read-out: PRP (PPACK) IC50) were 10 nM, 168 nM and 686 nM, respectively.
With `Cc1noc(C)c1S(=O)(=O)N[C@@H](CCC(=O)N1CCC2(CC1)CCN(c1ccncc1)CC2)C(=O)O` [Example 8, 2(S)-2-{[(3,5-dimethyl-4-isoxazolyl)sulfonyl]amino}-5-oxo-5-[9-(4-pyridyl)-3,9-diazaspiro [5.5]undec-3-yl]pentanoic acid], the IC50 in assay [1] came to 2 nM; in assay [2] (read-out: PRP IC50), 21 nM.
The corresponding values for `O=C(O)CN1CCN(C(=O)N2CCC3(CC2)CCN(c2ccncc2)C3)CC1` [Example 41] are 252 nM and 8920 nM.
Consider `O=C(N[C@@H](CCC(=O)N1CCC2(CCN(c3ccncc3)CC2)C1)C(=O)O)OCc1ccccc1` [Example 20, (2S)-2-{[(benzyloxy)carbonyl]amino}-5-oxo-5-[8-(4-pyridyl)-2,8-diazaspiro [4.5]dec-2-yl]pentanoic acid], for which the IC50 amounted to 12 nM in assay [1] and 9100 nM in assay [2] (setting [4]).
The corresponding values for `O=C(O)CS(=O)(=O)N1CCC(C(=O)N2CCC3(CC2)CCN(c2ccncc2)C3)CC1` [Example 51, ethyl 2-[(4-{[2-(4-pyridyl)-2,8-diazaspiro[4.5]dec-8-yl]carbonyl}-piperidino)sulfonyl]acetic acid] are 94 nM and 938 nM.
The corresponding values for `O=C(O)COC1CCN(C(=O)N2CCC3(CCN(c4ccncc4)CC3)C2)CC1` [Example 26, 2-((1-((8-(4-pyridyl)-2,8-diazaspiro[4.5]dec-2-yl)carbonyl)-4-piperidyl)oxy)acetic acid] are 457 nM and 1000 nM.
For `O=C(O)CC(=O)N1CCN(C(=O)N2CCC3(CC2)CCN(c2ccncc2)C3)CC1` [Example 31, 3-oxo-3-(4-{[-(4-pyridyl)-2,8-diazaspiro[4.5]dec-8-yl]carbonyl}piperazino) propanoic acid], the 50% inhibitory concentration (IC50) in assay [2] (setting [4]) came to 660 nM; in assay [3] (read-out: PRP (ADP-PPACK) IC50), 3600 nM.
As for `O=C(O)COC1CCN(C(=O)N2CCC3(CC2)CCN(c2ccncc2)CC3)CC1` [Example 11, 2-[(1 -{[9-(4-pyridyl)-3,9-diazaspiro[5.5]undec-3-yl]carbonyl}-4-piperidyl)oxy]acetic acid], the IC50 worked out at 129 nM in assay [1] and 2650 nM in assay [2] (read-out: PRP IC50).
The corresponding values for `O=C(O)COC1CCN(C(=O)N2CCC3(CC2)CCN(c2ccncc2)C3)CC1` [Example 44] are 138 nM and 3780 nM.
Consider `CCCCOC(=O)N[C@@H](CCC(=O)N1CCC2(CCN(c3ccncc3)CC2)C1)C(=O)O` [Example 21, (2S)-2-[(butoxycarbonyl)amino]-5-oxo-5-[8-(4-pyridyl)-2,8-diazaspiro [4.5]dec-2-yl]pentanoic acid], for which the IC50 in assay [1] stood at 162 nM; in assay [2] (setting [4]), 5700 nM.
The matching figures for `O=C(O)CCCCCC(=O)N1CCC2(CCN(c3ccncc3)CC2)C1` [Example 24, 7-oxo-7-(8-(4-pyridyl)-2,8-diazaspiro[4.5]dec-2-yl)heptanoic acid]: 16 nM and 1300 nM.
As to `Cc1ccc(S(=O)(=O)N[C@@H](CNC(=O)C2CCC3(CC2)CCN(c2ccncc2)CC3)C(=O)O)cc1` [Example 14, (2S)-2-{[(4-methylphenyl)sulfonyl]amino}-3-({[3-(4-pyridyl)-3-azaspiro [5.5]undec-9-yl]carbonyl}amino)propanoic acid], the figures for the IC50 in assay [1], in assay [2] (setting [4]) and in assay [3] (read-out: PRP (ADP-PPACK) IC50) were 1 nM, 98 nM and 169 nM, respectively.
For `O=C(O)CC(=O)NC1CCN(C(=O)N2CCC3(CC2)CCN(c2ccncc2)C3)C1` (stereo not drawn) [Example 47, 3-oxo-3-[(1-{[2-(4-pyridyl)-2,8-diazaspiro[4.5]dec-8-yl]carbonyl}-tetrahydro-1H-3-pyrrolyl)amino]propanoic acid], the results for the IC50 in assay [1] and in assay [2] (read-out: PRP IC50) were 447 nM and 5860 nM, respectively.
For the compound `Cc1noc(C)c1S(=O)(=O)N[C@@H](CCC(=O)N1CCC2(CC1)CCN(c1ccncc1)C2)C(=O)O` [Example 34, (2S)-2-{[(3,5-dimethyl-4-isoxazolyl)sulfonyl]amino}-5-oxo-5-[2-(4-pyridyl)-2,8-diazaspiro [4.5]dec-8-yl]pentanoic acid], the IC50 was found to be 2 nM in assay [1] and 271 nM in assay [2] (setting [4]).
The matching figures for `O=C(O)CCCCCCC(=O)N1CCC2(CCN(c3ccncc3)CC2)C1` [Example 23, 8-oxo-8-(8-(4-pyridyl)-2,8-diazaspiro[4.5]dec-2-yl)octanoic acid]: 196 nM and 18700 nM.
Take `O=C(O)CCCCCC(=O)N1CCC2(CC1)CCN(c1ccncc1)CC2` [Example 3, 7-oxo-7-(9-(4-pyridyl)-3,9-diazaspiro[5.5]undec-3-yl)heptanoic acid]: the values for the IC50 in assay [1] and in assay [2] (read-out: PRP IC50) were 265 nM and 4500 nM, respectively.
Take `O=C(O)CN1CCN(C(=O)N2CCC3(CC2)CCN(c2ccncc2)C3)CC1=O` [Example 29, 2-(2-oxo-4-((2-(4-pyridyl)-2,8-diazaspiro[4.5]dec-8-yl)carbonyl)piperazino)acetic acid]: the IC50 in assay [1] is 122 nM; in assay [2] (setting [4]), 2650 nM.
Regarding `O=C(O)COCC1CCN(C(=O)N2CCC3(CC2)CCN(c2ccncc2)C3)CC1` [Example 45, 2-[(1-{[2-(4-pyridyl)-2,8-diazaspiro[4.5]dec-8-yl]carbonyl}-4-piperidyl)-methoxy]acetic acid], the values for the IC50 in assay [1] and in assay [2] (read-out: PRP IC50) were 106 nM and 2820 nM, respectively.
`Cc1noc(C)c1S(=O)(=O)N[C@@H](CNC(=O)N1CCC2(CC1)CCN(c1ccncc1)CC2)C(=O)O` [Example 10, (2S)-2-{[(3,5-dimethyl-4-isoxazolyl)sulfonyl]amino}-3-( {[9-(4-pyridyl)-3,9-diazaspiro [5.5]undec-3-yl]carbonyl}amino)propanoic acid]: the IC50 was determined as 1 nM in assay [1] and 31 nM in assay [2] (read-out: PRP IC50).
As for `Cc1noc(C)c1S(=O)(=O)N[C@@H](CNC(=O)C1CCC2(CC1)CCN(c1ccncc1)CC2)C(=O)O` [Example 13, (2S)-2-{[(3,5-dimethyl-4-isoxazolyl)sulfonyl]amino}-3-({[3-(4-pyridyl)-3-azaspiro [5.5]undec-9-yl]carbonyl}amino)propanoic acid], the half-maximal inhibitory concentration (IC50) came out at 1 nM in assay [1], 44 nM in assay [2] (setting [4]) and 68 nM in assay [3] (read-out: PRP (ADP-PPACK) IC50).
Turning to `O=C(O)CC(=O)N1CCCN(C(=O)N2CCC3(CC2)CCN(c2ccncc2)C3)CC1` [Example 43, 3-oxo-3-(4-{[2-(4-pyridyl)-2,8-diazaspiro[4.5]dec-8-yl]carbonyl}-1,4-diazepan-1-yl) propanoic acid], the 50% inhibitory concentration (IC50) was determined as 25 nM in assay [1] and 697 nM in assay [2] (read-out: PRP IC50).
